Experimental data taken from ChEMBL document CHEMBL1201862, “PubChem BioAssay data set” (2004).
Activity calls are given as the source filed them.

Assays:
[1] = target: T1, Epstein-Barr nuclear antigen 1 (Epstein-Barr virus (strain B95-8) (HHV-4) (Human herpesvirus 4), UniProt P03211); assay: EBNA-1 inhibitors, dose response, biochemical, fluorescence polarization, 1536-well (AID 2381); parameters: species or system human gammaherpesvirus 4;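 further: fluorescence polarization of a Cy5 DNA probe bound by EBNA-1 protein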
T1 sequence (P03211 whole entry): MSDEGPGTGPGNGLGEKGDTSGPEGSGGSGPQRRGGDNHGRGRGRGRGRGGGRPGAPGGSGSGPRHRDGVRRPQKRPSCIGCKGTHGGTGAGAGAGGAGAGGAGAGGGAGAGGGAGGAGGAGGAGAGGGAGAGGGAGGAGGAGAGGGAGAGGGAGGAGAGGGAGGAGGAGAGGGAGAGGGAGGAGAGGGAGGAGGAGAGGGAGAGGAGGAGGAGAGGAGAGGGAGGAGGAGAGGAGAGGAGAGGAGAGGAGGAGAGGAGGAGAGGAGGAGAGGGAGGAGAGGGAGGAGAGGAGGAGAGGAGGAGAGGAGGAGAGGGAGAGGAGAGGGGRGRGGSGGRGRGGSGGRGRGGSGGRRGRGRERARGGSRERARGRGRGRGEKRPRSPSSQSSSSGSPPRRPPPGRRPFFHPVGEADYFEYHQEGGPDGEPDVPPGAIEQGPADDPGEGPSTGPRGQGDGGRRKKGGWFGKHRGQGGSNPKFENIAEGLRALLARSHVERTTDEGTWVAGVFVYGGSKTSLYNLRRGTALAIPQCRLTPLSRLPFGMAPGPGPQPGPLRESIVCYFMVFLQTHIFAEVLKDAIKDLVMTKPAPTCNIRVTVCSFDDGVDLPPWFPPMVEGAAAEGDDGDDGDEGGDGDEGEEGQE

[2] = target: T2, Lytic switch protein BZLF1 (Epstein-Barr virus (strain B95-8) (HHV-4) (Human herpesvirus 4), UniProt P03206); assay: EBV ZTA inhibitors, dose response, counter-screen for EBNA-1 inhibitor project, biochemical, fluorescence polarization, Epstein-Barr virus, 1536-well (AID 2377); parameters: species or system human gammaherpesvirus 4;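 further: fluorescence polarization of Cy5-labelled ZRE DNA probe bound by purified Zta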
T2 sequence (P03206 whole entry): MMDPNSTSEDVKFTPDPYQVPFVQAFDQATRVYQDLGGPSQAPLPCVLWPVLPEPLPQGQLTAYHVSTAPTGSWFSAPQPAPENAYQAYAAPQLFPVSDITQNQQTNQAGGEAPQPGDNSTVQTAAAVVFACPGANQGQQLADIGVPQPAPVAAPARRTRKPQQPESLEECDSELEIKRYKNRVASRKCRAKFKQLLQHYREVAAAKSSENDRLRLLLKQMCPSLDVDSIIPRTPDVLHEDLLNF

[3] = target: T3, Acyl-homoserine lactone acylase PvdQ (Pseudomonas aeruginosa (strain LESB58), UniProt Q9I194); assay: P. aeruginosa PvdQ acylase inhibitors, dose response, biochemical, fluorescence, plate reader and imaging, cherry-picks (AID 493231)
T3 sequence (Q9I194 whole entry): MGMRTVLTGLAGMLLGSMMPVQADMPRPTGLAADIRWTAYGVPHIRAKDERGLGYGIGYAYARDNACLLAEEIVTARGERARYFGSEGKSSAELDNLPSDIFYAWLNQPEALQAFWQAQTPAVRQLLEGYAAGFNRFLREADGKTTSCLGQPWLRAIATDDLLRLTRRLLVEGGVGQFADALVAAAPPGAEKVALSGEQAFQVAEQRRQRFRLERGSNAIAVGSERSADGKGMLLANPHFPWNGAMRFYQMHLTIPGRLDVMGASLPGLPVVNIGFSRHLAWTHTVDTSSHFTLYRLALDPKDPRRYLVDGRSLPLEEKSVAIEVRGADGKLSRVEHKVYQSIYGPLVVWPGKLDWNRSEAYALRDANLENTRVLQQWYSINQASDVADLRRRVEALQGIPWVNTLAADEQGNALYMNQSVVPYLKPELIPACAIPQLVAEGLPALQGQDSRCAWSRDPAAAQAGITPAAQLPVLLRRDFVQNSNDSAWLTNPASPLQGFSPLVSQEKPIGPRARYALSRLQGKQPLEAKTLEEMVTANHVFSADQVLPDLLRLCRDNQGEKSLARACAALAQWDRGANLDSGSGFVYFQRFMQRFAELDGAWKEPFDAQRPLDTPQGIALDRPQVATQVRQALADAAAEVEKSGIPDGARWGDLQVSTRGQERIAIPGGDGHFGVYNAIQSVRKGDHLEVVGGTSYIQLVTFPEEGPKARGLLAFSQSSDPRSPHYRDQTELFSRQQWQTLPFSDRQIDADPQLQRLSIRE

[4] = M. tuberculosis H37Rv growth inhibitors, H37Rv strain (AID 1626); type: functional
[5] = target: T4, Short transient receptor potential channel 4 (Mus musculus, UniProt Q9QUQ5); assay: mouse TRPC4 channel inhibitors, dose response, cell-based, HEK293 TRPC4/mu-opioid, Fluo-4 calcium (AID 434942); type: functional;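 further: potency of inhibitors blocking the TRPC4 calcium response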
T4 sequence (Q9QUQ5 whole entry): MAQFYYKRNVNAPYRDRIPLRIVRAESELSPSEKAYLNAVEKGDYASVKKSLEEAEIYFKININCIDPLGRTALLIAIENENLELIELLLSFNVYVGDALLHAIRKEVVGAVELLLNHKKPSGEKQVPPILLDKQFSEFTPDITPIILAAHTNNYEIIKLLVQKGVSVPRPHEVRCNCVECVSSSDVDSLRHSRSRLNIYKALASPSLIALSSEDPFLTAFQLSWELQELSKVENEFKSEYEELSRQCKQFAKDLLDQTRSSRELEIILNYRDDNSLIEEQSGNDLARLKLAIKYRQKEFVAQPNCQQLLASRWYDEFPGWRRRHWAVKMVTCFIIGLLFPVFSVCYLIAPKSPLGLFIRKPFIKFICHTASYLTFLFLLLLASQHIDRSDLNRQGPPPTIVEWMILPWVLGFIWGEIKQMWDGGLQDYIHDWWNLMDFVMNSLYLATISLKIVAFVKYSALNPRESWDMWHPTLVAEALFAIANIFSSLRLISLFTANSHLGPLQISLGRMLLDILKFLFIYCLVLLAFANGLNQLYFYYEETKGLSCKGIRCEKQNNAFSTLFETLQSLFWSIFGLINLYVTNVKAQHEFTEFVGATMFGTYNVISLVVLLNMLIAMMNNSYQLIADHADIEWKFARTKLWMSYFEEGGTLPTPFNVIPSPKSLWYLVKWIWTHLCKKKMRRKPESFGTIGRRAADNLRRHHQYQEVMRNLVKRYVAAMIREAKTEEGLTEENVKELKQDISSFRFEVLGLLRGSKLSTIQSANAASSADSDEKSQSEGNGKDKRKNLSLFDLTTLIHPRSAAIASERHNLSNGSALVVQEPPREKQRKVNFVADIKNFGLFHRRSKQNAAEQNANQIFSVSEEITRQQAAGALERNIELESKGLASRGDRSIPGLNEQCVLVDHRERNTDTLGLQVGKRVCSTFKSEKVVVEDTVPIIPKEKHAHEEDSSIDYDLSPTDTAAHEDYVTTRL

cells [6] = type: functional, cell-based
cells [7] = type: functional, cell-based; remark: listed apart in the source
[8] = target: G-protein coupled receptor 55 (Homo sapiens, UniProt Q9Y2T6); assay: SAR Analysis of Selective Antagonists of GPR55 using an Image-Based Assay - Set 4. [Related pubchem assays (depositor defined):AID2013, AID2026]; type: functional;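 further: antagonism of response to 5 µM lysophosphatidylinositol agonist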
Chain of G-protein coupled receptor 55 (Q9Y2T6 whole entry): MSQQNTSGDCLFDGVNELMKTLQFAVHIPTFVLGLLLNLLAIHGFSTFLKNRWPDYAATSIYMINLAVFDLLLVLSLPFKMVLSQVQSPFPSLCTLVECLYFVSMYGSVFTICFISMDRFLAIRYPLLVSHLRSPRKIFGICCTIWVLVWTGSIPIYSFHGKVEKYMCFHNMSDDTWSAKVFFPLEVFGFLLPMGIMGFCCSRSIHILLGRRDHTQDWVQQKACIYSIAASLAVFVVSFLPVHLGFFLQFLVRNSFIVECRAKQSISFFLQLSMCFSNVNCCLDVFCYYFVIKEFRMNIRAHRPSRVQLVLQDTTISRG

Cannabinoid receptor 2 [9] = target: T5, Cannabinoid receptor 2 (Homo sapiens, UniProt P34972); assay: SAR analysis of antagonists of the Cannabinoid Receptor 2 using an Image-Based Assay - Set 3. [Related pubchem assays (depositor defined):AID2013, AID2026]; type: functional
T5 sequence (P34972 whole entry): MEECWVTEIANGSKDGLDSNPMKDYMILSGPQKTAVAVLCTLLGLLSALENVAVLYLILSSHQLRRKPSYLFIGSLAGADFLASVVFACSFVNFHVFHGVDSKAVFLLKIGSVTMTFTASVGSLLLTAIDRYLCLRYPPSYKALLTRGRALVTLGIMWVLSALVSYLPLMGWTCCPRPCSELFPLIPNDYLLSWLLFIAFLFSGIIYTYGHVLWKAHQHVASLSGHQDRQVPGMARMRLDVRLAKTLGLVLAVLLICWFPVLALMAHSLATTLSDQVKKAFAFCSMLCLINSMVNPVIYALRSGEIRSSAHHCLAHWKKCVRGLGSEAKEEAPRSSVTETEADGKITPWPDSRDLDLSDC

Cannabinoid receptor 1 [10] = target: T6, Cannabinoid receptor 1 (Homo sapiens, UniProt P21554); assay: SAR analysis of antagonists of the Cannabinoid Receptor 1 using an Image-Based Assay - Set 4. [Related pubchem assays (depositor defined):AID2013, AID2026]; type: functional
T6 sequence (P21554 whole entry): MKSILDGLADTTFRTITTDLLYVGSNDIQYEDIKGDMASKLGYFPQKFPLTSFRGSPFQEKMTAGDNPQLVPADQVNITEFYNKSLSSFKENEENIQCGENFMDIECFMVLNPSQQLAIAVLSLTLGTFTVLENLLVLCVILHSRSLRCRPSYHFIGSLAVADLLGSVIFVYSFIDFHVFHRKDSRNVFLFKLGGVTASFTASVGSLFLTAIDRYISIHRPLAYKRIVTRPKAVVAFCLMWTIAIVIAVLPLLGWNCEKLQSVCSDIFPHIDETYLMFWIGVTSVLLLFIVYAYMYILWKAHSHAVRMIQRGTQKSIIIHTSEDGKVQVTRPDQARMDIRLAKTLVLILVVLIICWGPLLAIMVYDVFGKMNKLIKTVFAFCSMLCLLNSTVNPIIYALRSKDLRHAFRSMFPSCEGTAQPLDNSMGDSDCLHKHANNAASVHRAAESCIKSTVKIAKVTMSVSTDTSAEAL

[11] = target: T7, G-protein coupled receptor 35 (Homo sapiens, UniProt Q9HC97); assay: SAR analysis of Agonists of the GPR35 Receptor using an Image-Based Assay - Set 4. [Related pubchem assays (depositor defined):AID2013, AID2026]; type: functional
T7 sequence (Q9HC97 whole entry): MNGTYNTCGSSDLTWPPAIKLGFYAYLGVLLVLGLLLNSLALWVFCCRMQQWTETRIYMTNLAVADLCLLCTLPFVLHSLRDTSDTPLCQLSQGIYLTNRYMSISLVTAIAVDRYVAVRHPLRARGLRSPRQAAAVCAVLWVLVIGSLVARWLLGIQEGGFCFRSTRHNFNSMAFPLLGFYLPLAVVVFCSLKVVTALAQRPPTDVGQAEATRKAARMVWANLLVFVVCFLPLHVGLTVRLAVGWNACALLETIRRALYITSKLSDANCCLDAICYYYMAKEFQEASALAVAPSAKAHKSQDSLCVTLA

Cannabinoid receptor 1 [12] = target: T6, Cannabinoid receptor 1; assay: SAR analysis of agonists of the Cannabinoid Receptor 1 using an Image-Based Assay - Set 4. [Related pubchem assays (depositor defined):AID2013, AID2026]; type: functional
[13] = target: T7, G-protein coupled receptor 35; assay: SAR analysis of Antagonists of the GPR35 Receptor using an Image-Based Assay - Set 6. [Related pubchem assays (depositor defined):AID2013, AID2026]; type: functional
Cannabinoid receptor 2 [14] = target: T5, Cannabinoid receptor 2; assay: SAR analysis of agonists of the Cannabinoid Receptor 2 using an Image-Based Assay - Set 3. [Related pubchem assays (depositor defined):AID2013, AID2026]; type: functional

SMILES: CN1C(=O)N(C)C2(c3ccccc3)Nn3c(s/c(=C/c4ccco4)c3=O)=NC12c1ccccc1 (stereo unspecified)
- IC50 [1]: > 5.47 µM (active)
- IC50 [2]: > 111 µM (not active)

SMILES: COc1ccc(CC(C)Nc2cccc(F)c2)cc1 (stereo unspecified)
- AC50 [3]: 14.5 µM (active)

SMILES: CCCc1nn(C)c(C(=O)Nc2ccc(CC)cc2)c1Cl
- IC50 [4]: > 100 µM (active)

SMILES: Cc1nn(C(=O)c2cccnc2)c(C)c1Sc1ccccc1
- EC50 [5]: 3.35 µM (active)
- EC50 (cells [6]): > 350 µM (not active)
- EC50 (cells [7]): > 350 µM (not active)

SMILES: CCOc1cc(C(=O)OCC(=O)c2c(N)n(C)c(=O)n(C)c2=O)cc(OCC)c1OCC
- IC50 [1]: 19.3 µM (not active)
- IC50 [2]: > 111 µM (not active)

SMILES: Cc1nc(N2CCN(C(=O)c3ccc4c(c3)OCCO4)CC2)c2c3c(sc2n1)CCCC3
- IC50 [8]: 21.4 µM (inactive)
- IC50 (Cannabinoid receptor 2 [9]): 24.2 µM (inactive)
- IC50 (Cannabinoid receptor 1 [10]): 3.36 µM (active)
- EC50 [11]: > 32 µM (inactive)
- EC50 (Cannabinoid receptor 1 [12]): > 32 µM (inactive)
- IC50 [13]: > 32 µM (inactive)
- EC50 (Cannabinoid receptor 2 [14]): > 32 µM (inactive)
